According to BindingDB's records for doi:10.7270/Q2CF9NJZ (Nmmlsc, 2010):

What follows are compounds tested against Regulator of G-protein signaling 4 (Homo sapiens, UniProt P49798) (assay: RGS4-Galphao binding modulators, SAR follow-up, biochemical, multiplexed bead flow cytometry, SAR compounds (AID 2295)). Conditions: not given.
Sequence of Regulator of G-protein signaling 4 (P49798 whole entry): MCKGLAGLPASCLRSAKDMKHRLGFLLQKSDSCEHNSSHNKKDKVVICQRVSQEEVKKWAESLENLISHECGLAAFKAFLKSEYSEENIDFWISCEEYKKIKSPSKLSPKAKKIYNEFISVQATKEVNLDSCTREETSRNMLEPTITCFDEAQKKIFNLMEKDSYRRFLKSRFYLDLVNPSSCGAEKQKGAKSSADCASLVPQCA

| SMILES | EC50 |
| --- | --- |
| CN1CCN(C2=C(Cl)C(=O)C(c3cnc(N4CCCCC4)s3)=C(Cl)C2=O)CC1 | 0.336 µM |
| CCN=c1scc(C)n1N=Cc1ccc(O)c(O)c1O | 3.52 µM |
| CCN(CC)S(=O)(=O)c1cccc(C(=O)NN=Cc2ccc(O)c(O)c2O)c1 | 0.632 µM |
| Cc1cccc(N2CCN(C(=O)COc3nsc4nc(C)cc(C)c34)CC2C)c1 (configuration not stated) | 6.85 µM |
| Cc1cccc(N2CCN(C(=O)Cn3ccc4nc(C)cc(C)c4c3=O)CC2C)c1 (configuration not stated) [2,4-dimethyl-6-[2-[3-methyl-4-(3-methylphenyl)piperazin-1-yl]-2-oxidanylidene-ethyl]-1,6-naphthyridin-5-one] | > 30 µM |
| Cc1cc(C)c2c(=O)n(CC(=O)N3CCN(c4ccccc4)CC3)ccc2n1 [2,4-dimethyl-6-[2-oxidanylidene-2-(4-phenylpiperazin-1-yl)ethyl]-1,6-naphthyridin-5-one] | > 30 µM |
| Cc1cc(C)c2c(n1)CCN(CC(=O)N1CCN(c3ccccc3)CC1)C2=O [2,4-dimethyl-6-[2-oxidanylidene-2-(4-phenylpiperazin-1-yl)ethyl]-7,8-dihydro-1,6-naphthyridin-5-one] | > 30 µM |
| O=c1c2ccccc2sn1-c1ccc(S(=O)(=O)N2CCCC2)cc1 [2-(4-pyrrolidin-1-ylsulfonylphenyl)-1,2-benzothiazol-3-one] | 0.323 µM |
| Cc1cccc(N2CCN(C(=O)COc3noc4nc(C)cc(C)c34)CC2C)c1 (configuration not stated) [2-[(4,6-dimethyl-[1,2]oxazolo[5,4-b]pyridin-3-yl)oxy]-1-[3-methyl-4-(3-methylphenyl)piperazin-1-yl]ethanone] | > 30 µM |
| O=c1c2ccccc2sn1-c1ccccc1 [2-phenyl-1,2-benzothiazol-3-one] | 0.135 µM |
| O=C(NCCCN1CCOCC1)c1sc2cc([N+](=O)[O-])ccc2c1Cl [3-chloranyl-N-(3-morpholin-4-ylpropyl)-6-nitro-1-benzothiophene-2-carboxamide] | 10.1 µM |
| COC(=O)CCC(=O)Nc1sc(C)c(C)c1C(N)=O [4-[(3-carbamoyl-4,5-dimethyl-2-thienyl)amino]-4-keto-butyric acid methyl ester] | > 30 µM |
| CCN(CC)S(=O)(=O)c1cccc(-c2n[nH]c(=S)n2N=Cc2ccc(C(=O)OC)cc2)c1 [4-[(E)-[3-[3-(diethylsulfamoyl)phenyl]-5-thioxo-1H-1,2,4-triazol-4-yl]iminomethyl]benzoic acid methyl ester] | 9.64 µM |
| NS(=O)(=O)c1ccc(N=NCc2ccc(O)c(O)c2O)c([N+](=O)[O-])c1 [4-[[(E)-(2,3-dihydroxy-4-oxo-1-cyclohexa-2,5-dienylidene)methyl]hydrazo]-3-nitrobenzenesulfonamide] | 1.2 µM |

Next, values leading:

| EC50 | SMILES |
| --- | --- |
| 7.85 µM | CCOC(=O)c1sc(NC(=O)CSc2nnc(Cc3ccccc3)o2)c(C#N)c1C [4-cyano-3-methyl-5-[[1-oxo-2-[[5-(phenylmethyl)-1,3,4-oxadiazol-2-yl]thio]ethyl]amino]-2-thiophenecarboxylic acid ethyl ester] |
| 1.71 µM | CN=c1scc(C)n1N=Cc1ccc(O)c(O)c1O [(4E)-2,3-dihydroxy-4-[[(4-methyl-2-methylimino-1,3-thiazol-3-yl)amino]methylidene]cyclohexa-2,5-dien-1-one] |
| 11 µM | Cc1[nH]n(-c2ccccc2)c(=S)c1/C=N/c1cccc([N+](=O)[O-])c1 [(4E)-5-methyl-4-[(3-nitroanilino)methylene]-2-phenyl-2-pyrazoline-3-thione] |
| > 30 µM | Cc1cccc(N2CCN(C(=O)CN3CCc4nc(C)cc(C)c4C3=O)CC2C)c1 (configuration not stated) [KUC103675N] |
| 0.3 µM | Cc1cc(Cl)ccc1/N=c1/ssnc1Cl [MLS000539990] |
| 0.269 µM | O=C1C(Cl)=C(N2CCCCC2)C(=O)C(Cl)=C1c1cnc(N2CCCCC2)s1 [MLS000550549] |
| 6.61 µM | CCC(=O)NC(c1ccc(C)cc1)c1cc([N+](=O)[O-])c2cccnc2c1O (configuration not stated) [MLS000553854] |
| 0.573 µM | COc1ccc(C2=CC(=O)C=CC2=O)cc1 [MLS001029846] |
| 0.164 µM | O=C(COc1ccccc1C(=O)NN=Cc1ccc(O)c(O)c1)NN=Cc1ccc(O)c(O)c1 [N''-[(Z)-(3-hydroxy-4-oxo-1-cyclohexa-2,5-dienylidene)methyl]-2-[2-[[(Z)-(3-hydroxy-4-oxo-1-cyclohexa-2,5-dienylidene)methyl]hydrazo]-2-oxoethoxy]benzohydrazide] |
| > 30 µM | CC1(C)OC(=O)C(=Cc2ccc(-c3ccc(S(N)(=O)=O)cc3)o2)C(=O)O1 [SMR000273939] |
| 1.1 µM | O=C(Cc1csc(N2CCOCC2)n1)NN=Cc1ccc(O)c(O)c1O [SMR000369439] |
| > 30 µM | Nc1c(C(=O)NCC2CCCO2)sc2nc3c(c(-c4ccco4)c12)CC/C3=C/c1ccco1 (configuration not stated) [UNM-0000305796] |

Same assay, conditions: inactive by the depositor's call

| EC50 | SMILES |
| --- | --- |
| 3.66 µM | CCOc1ccccc1-c1c2cc(O)c(=O)cc-2oc2cc(O)c(O)cc12 [MLS000578271] |
